Tests used:
Test in all cases: relative viability (nuclei count vs DMSO), 5 days (fraction); higher = more cells survive
BEN = test system: BEN
In short: (§1)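 Lung cancer cell lines, seeded in 1536-well plates, were treated the following day by pin tool with a single drug or with five library-drug doses (not always all listed) in √10 steps on top of a fixed anchor-drug dose. Cells were fixed and nuclei stained in one step after 5 days, and nuclei were counted. Relative viability is the nuclei count for treated wells divided by that for vehicle wells, reported as medians of duplicate plates.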

NCI-H1666 = test system: NCI-H1666
In short: as §1

ChaGo-K-1 = test system: ChaGo-K-1
In short: as §1

NCI-H838 = test system: NCI-H838
In short: as §1

NCI-H650 = test system: NCI-H650
In short: as §1

UMC-11 = test system: UMC-11
In short: as §1

NCI-H661 = test system: NCI-H661
In short: as §1

LXF-289 = test system: LXF-289
In short: as §1

NCI-H1651 = test system: NCI-H1651
In short: as §1

PC-3 [JPC-3] = test system: PC-3 [JPC-3]
In short: as §1

LC-2-ad = test system: LC-2-ad
In short: as §1

LU99A = test system: LU99A
In short: as §1

LCLC-97TM1 = test system: LCLC-97TM1
In short: as §1

NCI-H322M = test system: NCI-H322M
In short: as §1

NCI-H596 = test system: NCI-H596
In short: as §1

NCI-H2087 = test system: NCI-H2087
In short: as §1

HCC-15 = test system: HCC-15
In short: as §1

HCC-78 = test system: HCC-78
In short: as §1

CC1(C)CCC(c2ccc(Cl)cc2)=C(CN2CCN(c3ccc(C(=O)NS(=O)(=O)c4ccc(N[C@H](CCN5CCOCC5)CSc5ccccc5)c(S(=O)(=O)C(F)(F)F)c4)cc3)CC2)C1 [Navitoclax] + CC(C)C[C@H](NC(=O)[C@H](Cc1ccccc1)NC(=O)c1cnccn1)B(O)O [Bortezomib] (partner 0.002 µM)
relative viability (BEN; first compound 0.005 µM): 0.826
relative viability (BEN; first compound 0.01581 µM): 0.807
relative viability (BEN; first compound 0.05 µM): 0.664
relative viability (BEN; first compound 0.1581 µM): 0.789
relative viability (BEN; first compound 0.5 µM): 0.339
relative viability (NCI-H1666; first compound 0.005 µM): 0.791
relative viability (NCI-H1666; first compound 0.01581 µM): 0.825
relative viability (NCI-H1666; first compound 0.05 µM): 0.764
relative viability (NCI-H1666; first compound 0.1581 µM): 0.782
relative viability (NCI-H1666; first compound 0.5 µM): 0.805
relative viability (ChaGo-K-1; first compound 0.005 µM): 0.907
relative viability (ChaGo-K-1; first compound 0.01581 µM): 1.01
relative viability (ChaGo-K-1; first compound 0.05 µM): 0.91
relative viability (ChaGo-K-1; first compound 0.1581 µM): 0.959
relative viability (ChaGo-K-1; first compound 0.5 µM): 1.04
relative viability (NCI-H838; first compound 0.005 µM): 0.65
relative viability (NCI-H838; first compound 0.01581 µM): 1.19
relative viability (NCI-H838; first compound 0.05 µM): 1.17
relative viability (NCI-H838; first compound 0.1581 µM): 0.75
relative viability (NCI-H838; first compound 0.5 µM): 0.81
relative viability (NCI-H650; first compound 0.005 µM): 0.742
relative viability (NCI-H650; first compound 0.01581 µM): 0.959
relative viability (NCI-H650; first compound 0.05 µM): 0.817
relative viability (NCI-H650; first compound 0.1581 µM): 0.767
relative viability (NCI-H650; first compound 0.5 µM): 0.837
relative viability (UMC-11; first compound 0.005 µM): 0.629
relative viability (UMC-11; first compound 0.01581 µM): 0.8
relative viability (UMC-11; first compound 0.1581 µM): 0.661
relative viability (UMC-11; first compound 0.5 µM): 0.311
relative viability (NCI-H661; first compound 0.005 µM): 0.844
relative viability (NCI-H661; first compound 0.01581 µM): 0.873
relative viability (NCI-H661; first compound 0.05 µM): 0.785
relative viability (NCI-H661; first compound 0.1581 µM): 0.827
relative viability (NCI-H661; first compound 0.5 µM): 0.668
relative viability (LXF-289; first compound 0.005 µM): 0.989
relative viability (LXF-289; first compound 0.01581 µM): 1.05
relative viability (LXF-289; first compound 0.05 µM): 0.928
relative viability (LXF-289; first compound 0.1581 µM): 0.967
relative viability (LXF-289; first compound 0.5 µM): 0.959
relative viability (NCI-H1651; first compound 0.005 µM): 0.918
relative viability (NCI-H1651; first compound 0.01581 µM): 0.916
relative viability (NCI-H1651; first compound 0.05 µM): 0.423
relative viability (NCI-H1651; first compound 0.1581 µM): 0.943
relative viability (NCI-H1651; first compound 0.5 µM): 0.957
relative viability (PC-3 [JPC-3]; first compound 0.005 µM): 0.757
relative viability (PC-3 [JPC-3]; first compound 0.01581 µM): 0.784
relative viability (PC-3 [JPC-3]; first compound 0.05 µM): 0.732
relative viability (PC-3 [JPC-3]; first compound 0.1581 µM): 0.874
relative viability (PC-3 [JPC-3]; first compound 0.5 µM): 0.822
relative viability (LC-2-ad; first compound 0.005 µM): 0.988
relative viability (LC-2-ad; first compound 0.01581 µM): 1.1
relative viability (LC-2-ad; first compound 0.05 µM): 0.941
relative viability (LC-2-ad; first compound 0.1581 µM): 1.01
relative viability (LC-2-ad; first compound 0.5 µM): 1.06
relative viability (LU99A; first compound 0.005 µM): 1.08
relative viability (LU99A; first compound 0.01581 µM): 1.29
relative viability (LU99A; first compound 0.05 µM): 0.857
relative viability (LU99A; first compound 0.1581 µM): 1.15
relative viability (LU99A; first compound 0.5 µM): 1.32
relative viability (LCLC-97TM1; first compound 0.005 µM): 0.696
relative viability (LCLC-97TM1; first compound 0.01581 µM): 1.06
relative viability (LCLC-97TM1; first compound 0.05 µM): 0.583
relative viability (LCLC-97TM1; first compound 0.1581 µM): 0.6
relative viability (LCLC-97TM1; first compound 0.5 µM): 0.513
relative viability (NCI-H322M; first compound 0.005 µM): 1.21
relative viability (NCI-H322M; first compound 0.01581 µM): 1.33
relative viability (NCI-H322M; first compound 0.05 µM): 1.38
relative viability (NCI-H322M; first compound 0.1581 µM): 1.21
relative viability (NCI-H322M; first compound 0.5 µM): 1.22
relative viability (NCI-H596; first compound 0.005 µM): 1.22
relative viability (NCI-H596; first compound 0.01581 µM): 0.81
relative viability (NCI-H596; first compound 0.05 µM): 0.904
relative viability (NCI-H596; first compound 0.1581 µM): 1.22
relative viability (NCI-H596; first compound 0.5 µM): 0.914
relative viability (NCI-H2087; first compound 0.005 µM): 0.905
relative viability (NCI-H2087; first compound 0.01581 µM): 0.979
relative viability (NCI-H2087; first compound 0.05 µM): 0.504
relative viability (NCI-H2087; first compound 0.1581 µM): 0.612
relative viability (NCI-H2087; first compound 0.5 µM): 0.772
relative viability (HCC-15; first compound 0.005 µM): 0.941
relative viability (HCC-15; first compound 0.01581 µM): 0.995
relative viability (HCC-15; first compound 0.05 µM): 0.85
relative viability (HCC-15; first compound 0.1581 µM): 1.06
relative viability (HCC-15; first compound 0.5 µM): 1
relative viability (HCC-78; first compound 0.005 µM): 0.582
relative viability (HCC-78; first compound 0.01581 µM): 0.611
relative viability (HCC-78; first compound 0.05 µM): 0.404
relative viability (HCC-78; first compound 0.1581 µM): 0.45
relative viability (HCC-78; first compound 0.5 µM): 0.469

Oc1nc(-c2ccc(C(F)(F)F)cc2)nc2c1CSCC2 [XAV939] + CC(C)C[C@H](NC(=O)[C@H](Cc1ccccc1)NC(=O)c1cnccn1)B(O)O [Bortezomib] (partner 0.002 µM)
relative viability (BEN; first compound 0.08 µM): 0.709
relative viability (BEN; first compound 0.253 µM): 0.733
relative viability (BEN; first compound 0.8 µM): 0.559
relative viability (NCI-H1666; first compound 0.08 µM): 0.813
relative viability (NCI-H1666; first compound 0.253 µM): 0.611
relative viability (NCI-H1666; first compound 0.8 µM): 0.422
relative viability (NCI-H1666; first compound 2.53 µM): 0.5
relative viability (ChaGo-K-1; first compound 0.08 µM): 0.967
relative viability (ChaGo-K-1; first compound 0.253 µM): 0.848
relative viability (ChaGo-K-1; first compound 0.8 µM): 0.981
relative viability (ChaGo-K-1; first compound 2.53 µM): 0.941
relative viability (NCI-H838; first compound 0.08 µM): 0.852
relative viability (NCI-H838; first compound 0.253 µM): 0.683
relative viability (NCI-H838; first compound 0.8 µM): 0.893
relative viability (NCI-H838; first compound 2.53 µM): 0.527
relative viability (NCI-H650; first compound 0.08 µM): 0.838
relative viability (NCI-H650; first compound 0.253 µM): 0.882
relative viability (NCI-H650; first compound 0.8 µM): 0.854
relative viability (NCI-H650; first compound 2.53 µM): 0.703
relative viability (UMC-11; first compound 0.08 µM): 0.789
relative viability (UMC-11; first compound 0.8 µM): 0.754
relative viability (UMC-11; first compound 2.53 µM): 0.708
relative viability (NCI-H661; first compound 0.08 µM): 0.866
relative viability (NCI-H661; first compound 0.253 µM): 0.707
relative viability (NCI-H661; first compound 0.8 µM): 0.95
relative viability (NCI-H661; first compound 2.53 µM): 0.495
relative viability (LXF-289; first compound 0.08 µM): 1.05
relative viability (LXF-289; first compound 0.253 µM): 0.966
relative viability (LXF-289; first compound 0.8 µM): 0.994
relative viability (LXF-289; first compound 2.53 µM): 1.05
relative viability (NCI-H1651; first compound 0.08 µM): 0.906
relative viability (NCI-H1651; first compound 0.253 µM): 0.905
relative viability (NCI-H1651; first compound 0.8 µM): 0.942
relative viability (NCI-H1651; first compound 2.53 µM): 0.925
relative viability (PC-3 [JPC-3]; first compound 0.08 µM): 0.839
relative viability (PC-3 [JPC-3]; first compound 0.253 µM): 0.722
relative viability (PC-3 [JPC-3]; first compound 0.8 µM): 0.831
relative viability (PC-3 [JPC-3]; first compound 2.53 µM): 0.755
relative viability (LC-2-ad; first compound 0.08 µM): 1.01
relative viability (LC-2-ad; first compound 0.253 µM): 0.919
relative viability (LC-2-ad; first compound 0.8 µM): 0.984
relative viability (LC-2-ad; first compound 2.53 µM): 0.887
relative viability (LU99A; first compound 0.08 µM): 1.26
relative viability (LU99A; first compound 0.253 µM): 0.714
relative viability (LU99A; first compound 0.8 µM): 1.01
relative viability (LU99A; first compound 2.53 µM): 1.19
relative viability (LCLC-97TM1; first compound 0.08 µM): 0.589
relative viability (LCLC-97TM1; first compound 0.253 µM): 0.517
relative viability (LCLC-97TM1; first compound 0.8 µM): 0.472
relative viability (LCLC-97TM1; first compound 2.53 µM): 0.505
relative viability (NCI-H322M; first compound 0.08 µM): 1.39
relative viability (NCI-H322M; first compound 0.253 µM): 0.996
relative viability (NCI-H322M; first compound 0.8 µM): 1.1
relative viability (NCI-H322M; first compound 2.53 µM): 0.976
relative viability (NCI-H596; first compound 0.08 µM): 1.11
relative viability (NCI-H596; first compound 0.253 µM): 1.1
relative viability (NCI-H596; first compound 0.8 µM): 1.09
relative viability (NCI-H596; first compound 2.53 µM): 1.3
relative viability (NCI-H2087; first compound 0.08 µM): 0.864
relative viability (NCI-H2087; first compound 0.253 µM): 0.595
relative viability (NCI-H2087; first compound 0.8 µM): 0.938
relative viability (NCI-H2087; first compound 2.53 µM): 0.763
relative viability (HCC-15; first compound 0.08 µM): 1.2
relative viability (HCC-15; first compound 0.253 µM): 0.938
relative viability (HCC-15; first compound 0.8 µM): 1.05
relative viability (HCC-15; first compound 2.53 µM): 1.06
relative viability (HCC-78; first compound 0.08 µM): 0.517
relative viability (HCC-78; first compound 0.253 µM): 0.363
relative viability (HCC-78; first compound 0.8 µM): 0.526
relative viability (HCC-78; first compound 2.53 µM): 0.405

— the supplement of paper PMC10307832
